Test results as given in ChEMBL document CHEMBL1759870, “Identification, structural properties and chelating capacity of miltipolone as a broad-spectrum inhibitor to cancer cells” (Eur J Med Chem, 2011).

Key:
Bel-7402 = assay: Antiproliferative activity against human Bel7402 cells after 96 hrs by MTT assay; type: functional, cell-based; settings: Bel-7402, 96 h
HeLa = assay: Antiproliferative activity against human HeLa cells after 96 hrs by MTT assay; type: functional, cell-based
HT-1080 = assay: Antiproliferative activity against human HT1080 cells after 96 hrs by MTT assay; type: functional, cell-based; settings: HT-1080, 96 h
A-375 = assay: Antiproliferative activity against human A375 cells after 96 hrs by MTT assay; type: functional, cell-based; settings: A-375, 96 h
NCI-N87 = assay: Antiproliferative activity against human NCI-N87 cells after 96 hrs by MTT assay; type: functional, cell-based; settings: NCI-N87, 96 h
PANC-1 = assay: Antiproliferative activity against human PANC1 cells after 96 hrs by MTT assay; type: functional, cell-based; settings: PANC-1, 96 h
HUVEC = assay: Antiproliferative activity against human HUVEC cells after 96 hrs by MTT assay; type: cell-based
HepG2 = assay: Antiproliferative activity against human HepG2 cells after 96 hrs by MTT assay; type: functional, cell-based; settings: HepG2, 96 h
Jurkat = assay: Antiproliferative activity against human Jurkat cells after 96 hrs by MTT assay; type: functional, cell-based

| Structure (SMILES) | IC50 (Bel-7402) [µM] | IC50 (HeLa) [µM] | IC50 (HT-1080) [µM] | IC50 (A-375) [µM] | IC50 (NCI-N87) [µM] | IC50 (PANC-1) [µM] | IC50 (HUVEC) [µM] | IC50 (HepG2) [µM] | IC50 (Jurkat) [µM] |
| --- | --- | --- | --- | --- | --- | --- | --- | --- | --- |
| CC(=O)O[C@H]1C(=O)[C@@]2(C)[C@H]([C@H](OC(=O)c3ccccc3)[C@]3(O)C[C@H](OC(=O)[C@H](O)[C@@H](NC(=O)c4ccccc4)c4ccccc4)C(C)=C1C3(C)C)[C@]1(OC(C)=O)CO[C@@H]1C[C@@H]2O [PACLITAXEL] | 0.578 | 0.1 | 0.0012 | 0.0046 | 0.0059 | 0.384 |  |  |  |
| COc1cccc2c1C(=O)c1c(O)c3c(c(O)c1C2=O)C[C@@](O)(C(=O)CO)C[C@@H]3O[C@H]1C[C@H](N)[C@H](O)[C@H](C)O1 [DOXORUBICIN] |  |  |  |  | 0.42 |  | 0.0303 | 0.019 | 0.0375 |
